According to patent US20240156965A1, “DICHALCOGENIDE PRODRUGS” (Ludwig-Maximilians-Universitat Munchen, priority 2021, published 2024):
Positions count from the first letter of the chain named. “Also recorded” adds a separate entry of the source. Where two headings read alike, the source gives them in different places.

Columns and labels:
[1] = test system: selenium-dependent reductases in cells; assay: Cellular reduction assay with selenium starvation or supplementation; format: cell-based
Protocol: (§1) Assay Conditions: Cells were cultured under standard conditions (Gao, L. et al. Cell Chemical Biology 2021, 28, 1-14. https://doi.org/10.1016/j.chembiol.2020.11.007), left to adhere for 24 h, then compounds were added to 100 μM with 1% vol DMSO. Fluorescence timecourse measurements were acquired as in the chemoreductant assay, with all conditions in triplicates.
(§2) Data Representation: F.I.(t) is the fluorescence intensity signal increase as compared to time zero signal (fluorescence intensity immediately following compound addition, before probe activation could occur), in arbitrary units although with the same detection settings for all probes releasing the same cargo. This corresponds to reduction-triggered cargo release.

[2] = test system: HeLa cervical cancer cell line; assay: Cellular reduction assay in HeLa cells (fluorescence timecourse); format: cell-based, human; conditions: time- and dose-dependence
Protocol: as §1, §2

[3] = Challenge with monothiol reductant GSH, cell-free fluorogenic cargo release; format: physicochemical; conditions: 10 μM probe; for sensitivity to GSH in GSH titration, signal F/F^TCEP: 3 h timepoint, GSH up to 10 mM; for cargo release when challenged with GSH / GSH system reductants: relevant cellular levels
Source text: (§3) This cell-free assay examined the stability of dichalcogenide-based reduction-triggered compounds of the invention when exposed to cellular monothiol reductant GSH, and its cellular partner reductants glutathione reductase (GR) and glutaredoxins (Grx1 and Grx2).
(§4) Assay Conditions: A black 96-well plate with black bottom was charged with solutions of fluorophore-releasing reduction-triggered probes that are compounds of the invention (P1, P2, P3, P6 and P7) or that are not compounds of the invention and reveal the performance of prior art systems (disulfide X26), reaching 100 μL final volume, 1% final DMSO, 10 μM probe, aq. TE buffer (pH 7.4), with the indicated concentrations of reductant (in FIG. 1a) or concentration ratios of reductant to probe (in FIG. 1b-d). TCEP (100 μM) was used as a quantitative reference reductant; and in the GR/GSH/Grx assays (FIG. 1c-d), GR was used at 20 nM, GSH at 100 μM, to maintain Grx in a reduced state suitable for challenging the probes without supplying a high concentration of either GSH or GR. Reaction mixtures were incubated at 37° C. for up to 6 h while measuring fluorescence intensity F over time, using a BMG Labtech FLUOstar Omega platereader (λexc=355 nm, λem=530 nm).
(§5) Data Representation: F^TCEP is the maximum possible fluorescence increase, corresponding to complete reduction-triggered cargo release by the TCEP incubation. F/F^TCEP thus gives the fluorescence intensity, as a fraction of the maximum possible fluorescence signal, at the indicated times.

[4] = low concentration of GSH, within 20 minutes; cited from earlier work
TrxR = target: T1, TrxR (Homo sapiens, UniProt Q16881); assay: Cellular reduction assay in HeLa cells with chemical TrxR inhibition (TRi compounds); format: cell-based
T1 construct: P6 is processed by native (selenium-incorporating) TrxR1 in cells; endogenous in cells; host or cells: HeLa
T1 sequence (Q16881 1-499 isoform Q16881-5): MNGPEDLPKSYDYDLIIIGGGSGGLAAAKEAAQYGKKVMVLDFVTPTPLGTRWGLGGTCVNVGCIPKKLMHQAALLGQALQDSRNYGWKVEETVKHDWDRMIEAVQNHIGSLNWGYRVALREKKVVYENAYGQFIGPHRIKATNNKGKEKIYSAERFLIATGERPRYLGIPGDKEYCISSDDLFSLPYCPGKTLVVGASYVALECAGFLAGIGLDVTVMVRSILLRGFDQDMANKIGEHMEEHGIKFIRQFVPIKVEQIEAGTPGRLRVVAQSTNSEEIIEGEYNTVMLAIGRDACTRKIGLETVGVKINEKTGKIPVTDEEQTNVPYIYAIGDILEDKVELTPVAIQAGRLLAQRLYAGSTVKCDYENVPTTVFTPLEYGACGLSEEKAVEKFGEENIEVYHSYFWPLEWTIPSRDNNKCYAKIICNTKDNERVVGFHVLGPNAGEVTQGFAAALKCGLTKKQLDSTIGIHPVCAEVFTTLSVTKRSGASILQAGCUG
Protocol: as §1, §2

[5] = target: T2, human recombinant thioredoxin reductase 1 (TrxR1) (Homo sapiens, UniProt Q16881); assay: Enzymatic activation assay with TrxR1, cell-free; format: biochemical; conditions: 10 μM probe; for cargo release on exposure to TrxR1 (timecourse): 20 nM TrxR1, 100 μM NADPH, 37 °C; for response in TrxR titration: TrxR down to 5 nM
T2 sequence (Q16881 1-499 isoform Q16881-5): T1 sequence (Q16881 1-499 isoform Q16881-5)
Protocol: (§6) This cell-free assay (see FIG. 2) examined the processing of dichalcogenide-based fluorophore-releasing reduction-triggered probes that are compounds of the invention, by components of the cellular thioredoxin system.
(§7) Assay conditions and data representation: A black 96-well plate with black bottom was charged with solutions of probes (P1, P2, P3, P6, P7) to reach final reaction conditions: 100 μL of aq. TE buffer (pH 7.4), 10 μM probe concentration, 1 vol % DMSO, and 20 nM of human recombinant thioredoxin reductase 1 (TrxR1; in FIG. 1a), or 20 nM of either TrxR1 or thioredoxin reductase Sec498Cys mutant (TrxR1 U498C or “mut”; in FIG. 1b), or the indicated probe-to-reductant concentration ratios of TrxR1 (in FIG. 1c) or human recombinant thioredoxin 1 (Trx1; in FIG. 1d); with the final step being the addition of NADPH (100 μM final). The reaction mixtures were incubated at 37° C. for 3 to 6 h as shown with timecourse measurements of fluorescence as for FIG. 1. Data representation as for FIG. 1.

[6] = target: T3, human recombinant thioredoxin 1 (Trx1) (Homo sapiens, UniProt P10599); assay: Trx1 titration in Trx1/TrxR1 system, cell-free; format: biochemical; conditions: 10 μM probe
T3 sequence (P10599 2-105 limits assumed): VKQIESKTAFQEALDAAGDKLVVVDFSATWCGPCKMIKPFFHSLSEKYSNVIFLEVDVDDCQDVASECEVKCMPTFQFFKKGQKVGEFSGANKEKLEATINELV
Protocol: as §6, §7

[7] = target: T4, thioredoxin reductase Sec498Cys mutant (TrxR1 U498C) (Homo sapiens, UniProt Q16881); assay: Enzymatic activation assay with TrxR1 Sec498Cys mutant, cell-free; format: biochemical; conditions: 10 μM probe, 20 nM mutant, 100 μM NADPH
T4 sequence (Q16881 with tags, fused parts or gaps isoform Q16881-5): T1 sequence (Q16881 1-499 isoform Q16881-5) with U498C
Protocol: as §6, §7

TrxR1 = target: T5, TrxR1 (Mus musculus, UniProt Q9JMH6); assay: Cellular reduction assay in MEF cells with TrxR1 knockout; format: cell-based; conditions: MEF wildtype vs TrxR1 knockout
T5 construct: P6 is processed by native (selenium-incorporating) TrxR1 in cells; endogenous in cells; host or cells: MEF wildtype and MEF with TrxR1 knockout
T5 sequence (Q9JMH6 1-499 isoform Q9JMH6-2): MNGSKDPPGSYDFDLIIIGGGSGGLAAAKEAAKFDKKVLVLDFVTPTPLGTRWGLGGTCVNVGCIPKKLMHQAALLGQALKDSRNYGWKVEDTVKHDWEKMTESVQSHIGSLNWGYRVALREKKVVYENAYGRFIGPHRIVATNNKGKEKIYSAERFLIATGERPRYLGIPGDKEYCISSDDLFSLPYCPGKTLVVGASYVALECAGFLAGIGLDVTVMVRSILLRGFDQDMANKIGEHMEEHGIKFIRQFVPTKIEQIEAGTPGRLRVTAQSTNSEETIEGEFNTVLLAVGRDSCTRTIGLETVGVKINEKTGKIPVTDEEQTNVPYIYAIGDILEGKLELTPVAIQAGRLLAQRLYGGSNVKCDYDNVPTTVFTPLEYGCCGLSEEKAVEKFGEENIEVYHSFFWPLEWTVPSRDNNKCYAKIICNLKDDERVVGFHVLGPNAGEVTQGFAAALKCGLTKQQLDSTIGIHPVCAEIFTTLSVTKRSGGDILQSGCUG
Protocol: as §1, §2

[8] = test system: glutaredoxins (Grx1 and Grx2) with GR and GSH; assay: Challenge with GR/GSH/Grx system reductants, cell-free; format: biochemical; conditions: 10 μM probe, GR 20 nM, GSH 100 μM, Grx1 or Grx2 up to physiological concentrations
Source text: as §3, §4, §5

[9] = test system: A549 lung cancer cell line; assay: Cellular reduction assay in A549 cells; format: cell-based, human; conditions: time- and dose-dependence
Protocol: as §1, §2

HeLa cells = assay: In vitro cell viability assay (resazurin); format: cell-based, human; conditions: 48 h incubation, read-out: EC50 (antiproliferation / cell viability)
Protocol: Assay Conditions: HeLa cells were cultured under standard conditions (Gao, L. et al. Cell Chemical Biology 2021, 28, 1-14. https://doi.org/10.1016/j.chembiol.2020.11.007), left to adhere for 24 h, then compounds were added from DMSO stock solution and adjusted to 1% vol DMSO. Cells were further incubated for 48 h, then 0.20 volume equivalents of a solution of resazurin in PBS (0.15 mg/mL) were added and incubated for 3 hours, then fluorescence (ex 544 nm, em 590 nm) was detected on a fluorescence platereader. Cell viability (%) is calculated from the fluorescence values, relative to a control experiment with no compound added.

CNCCSSCCN(C)C(=O)Oc1ccc(Cl)cc1-c1nc2ccc(Cl)cc2c(=O)[nH]1 [X26, 4-chloro-2-(6-chloro-4-oxo-3,4-dihydroquinazolin-2-yl)phenyl methyl(2-((2-(methylamino)ethyl)disulfaneyl)ethyl)carbamate, reference compound]
effect of selenium starvation/supplementation on cellular signal generation [1]: not sensitive to selenium supplementation | fluorescence signal generation F.I.(t) in HeLa cells [2]: also generated signal | response to GSH-triggered release of fluorescent cargo PQ-OH (timecourse) ([3]; subphysiological GSH 1 mM, TE buffer pH 7.4, 37 °C): rapidly and strongly affected; also recorded: rapid response

COc1cccc2ccc3c(c12)Oc1cc(NC(=O)OCC[Se][Se]CCO)ccc1C31OC(=O)c2ccccc21 (centres unmarked) [E2]
fluorescence signal with GSH [4]: strong signal turn-on

CN1CCN(C(=O)CCN(C(=O)Oc2ccc(Cl)cc2-c2nc3ccc(Cl)cc3c(=O)[nH]2)[C@H]2CCS[Se]C2)CC1 [P6]
effect of chemical TrxR inhibition on cellular signal (TrxR): suppresses P6 signal generation; also recorded: almost entirely suppressed | effect of selenium starvation/supplementation on cellular signal generation [1]: strongly suppressed by selenium starvation | cargo release on exposure to TrxR1 (timecourse) [5]: release their cargo rapidly; also recorded: release cargo very rapidly | response in TrxR titration [5]: excellently responsive; also recorded: sensitively | cargo release with increasing Trx1 at fixed TrxR1 [6]: identical release of cargo; also recorded: did not affect the outcomes | cargo release by TrxR1 U498C mutant [7]: do not respond to the mutant; also recorded: did not cause cargo release | fluorescence signal generation F.I.(t) in HeLa cells [2]: strong time- and dose-dependent fluorescent signal increase; also recorded: generated strong fluorescent signal | sensitivity to GSH in GSH titration, signal F/F^TCEP [3]: completely insensitive | cargo release when challenged with GSH / GSH system reductants [3]: totally resisted releasing cargo | effect of TrxR1 knockout on cellular signal (TrxR1): almost entirely suppressed by knockout | triggering by GR/GSH/Grx systems [8]: resist triggering | fluorescence signal generation in A549 cells [9]: time- and dose-dependent fluorescence increase; also recorded: dose- and time-dependently generated signal

CN(C(=O)Oc1cc2c(c3ccccc13)[C@H](CCl)CN2C(=O)c1cc2cc(OCCCN3CCC3)ccc2[nH]1)[C@H]1CCS[Se]C1 [P8]
EC50 (HeLa cells): < 0.1 µM | EC50 (HeLa cells; Homo sapiens, 48 h): ~0.06 µM

CN1CCN(C(=O)CCN(C(=O)Oc2ccc(Cl)cc2-c2nc3ccc(Cl)cc3c(=O)[nH]2)[C@H]2CC[Se]SC2)CC1 [P7]
cargo release on exposure to TrxR1 (timecourse) [5]: release their cargo rapidly; also recorded: release cargo very rapidly | response in TrxR titration [5]: excellently responsive; also recorded: sensitively | cargo release with increasing Trx1 at fixed TrxR1 [6]: identical release of cargo; also recorded: did not affect the outcomes | cargo release by TrxR1 U498C mutant [7]: do not respond to the mutant; also recorded: did not cause cargo release | fluorescence signal generation F.I.(t) in HeLa cells [2]: strong time- and dose-dependent fluorescent signal increase; also recorded: generated strong fluorescent signal | sensitivity to GSH in GSH titration, signal F/F^TCEP [3]: very low sensitivity | cargo release when challenged with GSH / GSH system reductants [3]: high resistance to GSH challenge | triggering by GR/GSH/Grx systems [8]: resist triggering; also recorded: total resistance to Grx challenge
